Converted amounts (≈) assume the structure as drawn. Where a name gives a salt, the structure may show the parent alone. Read-outs that look alike come from different tables or passages of the source.
What was measured:
[1] = biological target: E. coli PBP3 (Escherichia coli (strain K12), UniProt P0AD68); experiment: E. coli PBP3 Bocillin-FL fluorescence polarization competition binding assay
Method in brief: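 Competition against 0.1 μM Bocillin-FL for binding to 1.5 μM purified protein, read by fluorescence polarization for 60 min. Compounds tested from 0 to 1000 μM; EC50 taken as the concentration reducing probe binding.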

[2] = test system: engineered strain of Escherichia coli harboring CTX-M15; experiment: microbe, parasite or virus in culture; type: cell-based; conditions: for MIC: Escherichia coli, read-out: Microbiological Activity (MIC in mg/L), E. coli DH5α/pLBII-CTX-M15, engineered strain producing CTX-M15
Description: (§1) Briefly, cryo-preserved bacterial cultures of challenge strains are streaked for isolation on appropriate agar medium, in this case Mueller Hinton II agar. Following incubation to allow growth of the colonies, plates are sealed with parafilm and stored refrigerated for up to two weeks. For preparation of assay inoculum and to ensure low variability, at least 5 colonies are picked from the agar plates with an inoculating loop and aseptically transferred to a culture tube containing 3 mL of Mueller-Hinton Broth (supplemented with divalent cations to required levels based on Manufacturers' certification). The broth culture is grown for 3-5 hours at 37° C. with shaking at 200 rpm. Meanwhile, 2-fold serial dilutions of test compounds are conducted in a 96 well plate with a final volume of 75 μL per well at 2-fold the final desired concentration. After the dilution plates are set up the growing cultures are then diluted in a cuvette containing MH II broth and the optical density is measured at 600 nm. The Inoculum is diluted such that 75 μL of this culture in Mueller-Hinton Broth results in a starting bacterial concentration of 5×10^5 CFU/mL when added to the dilution plates. The plates are incubated for 16-20 hours at 37° C. The MIC values are read visually as the lowest concentration well with no bacterial growth.
To determine if test compounds were affected by CTX-M15, the most abundant extended spectrum […] in clinical settings worldwide, the inhibition of the growth of an engineered strain of Escherichia coli harboring CTX-M15 was tested. This strain was constructed by cloning the gene encoding CTX-M15 into the NdeI and BamHI restriction endonuclease sites of plasmid pLBII, placing the gene(s) under the control of the Lac promoter. The constructed expression plasmid for CTX-M15 was used to transform competent E. coli DH5α cells to make the engineered strain, including an empty pLBII vector control strain. The classic cell based broth microdilution MIC assay was employed as described above with the addition of control antibiotics, known to be degraded by β-lactamases (Ceftazidime, piperacillin and piperacillin+tazobactam).

[3] = test system: E. coli ATCC 25922; experiment: Broth microdilution MIC, E. coli ATCC 25922; type: cell-based; conditions: Escherichia coli
Description: (§2) To determine the ability of test compounds to potentiate the inhibition of the growth of bacterial strains, classic cell based broth microdilution minimum inhibitory concentration (MIC) assays were employed. MIC assays are performed according to CLSI methods except where otherwise noted (CLSI, 2011 and CLSI, 2009). The reference type strain E. coli ATCC 25922, the wild-type parent strain E. coli AG100, the hyper-permeable E. coli 901C and E. coli D22 and the E. coli AG100A strain lacking the acrAB efflux pump encoding genes were used to determine the ability of the PBP inhibitors to penetrate the outer membrane of gram-negative bacteria and inhibit bacterial growth. […] The P. aeruginosa PAO1, P. aeruginosa ATCC 27853 and A. baumannii ATCC 19606, along with the hyper-permeable P. aeruginosa ATCC 35151 and an engineered efflux pump-compromised strain of P. aeruginosa (ΔmexAB-oprM) were used to determine the ability of PBP inhibitors to penetrate the outer membrane of P. aeruginosa and A. baumannii and assess antibacterial activity against these important gram-negative organisms.
as §1

[4] = test system: E. coli AG100; experiment: Broth microdilution MIC, E. coli AG100 (wild-type parent); type: cell-based; conditions: Escherichia coli; wild-type parent E. coli AG100, broth microdilution; read-out: MIC E. coli AG100
Description: To determine the ability of test compounds to potentiate the inhibition of the growth of bacterial strains, classic cell based broth microdilution minimum inhibitory concentration (MIC) assays were employed.
as §1

[5] = test system: E. coli 901C; experiment: microbe, parasite or virus in culture; type: cell-based; conditions: Escherichia coli; hyper-permeable E. coli 901C, broth microdilution; read-out: MIC E. coli 901C
Description: as §2, §1

[6] = test system: E. coli AG100A; experiment: microbe, parasite or virus in culture; type: cell-based; conditions: Escherichia coli, read-out: MIC E. coli AG100A
Description: as §2, §1

[7] = test system: E. coli D22; experiment: microbe, parasite or virus in culture; type: cell-based; conditions: Escherichia coli; hyper-permeable E. coli D22, broth microdilution; read-out: MIC E. coli D22
Description: as §2, §1

[8] = test system: K. pneumoniae SI-117; experiment: microbe, parasite or virus in culture; type: cell-based; conditions: Klebsiella pneumoniae, SI117, read-out: MIC K. pneumoniae SI-117
Description: as §2, §1

[9] = test system: K. pneumoniae UMM; experiment: microbe, parasite or virus in culture; type: cell-based; conditions: Klebsiella pneumoniae; K. pneumoniae UMM producing SHV-5 and KPC-2; read-out: MIC K. pneumoniae UMM
Description: as §2, §1

[10] = test system: K. pneumoniae 848844; experiment: microbe, parasite or virus in culture; type: cell-based, Klebsiella pneumoniae; conditions: Klebsiella pneumoniae; K. pneumoniae 848844 producing SHV-11 and KPC-2; read-out: MIC K. pneumoniae 848844
Description: as §2, §1

[11] = fluorescence polarization competition binding with Bocillin-FL, read-out: E. coli K12 PBP3 Potency

Chain of E. coli PBP3 (P0AD68 whole entry): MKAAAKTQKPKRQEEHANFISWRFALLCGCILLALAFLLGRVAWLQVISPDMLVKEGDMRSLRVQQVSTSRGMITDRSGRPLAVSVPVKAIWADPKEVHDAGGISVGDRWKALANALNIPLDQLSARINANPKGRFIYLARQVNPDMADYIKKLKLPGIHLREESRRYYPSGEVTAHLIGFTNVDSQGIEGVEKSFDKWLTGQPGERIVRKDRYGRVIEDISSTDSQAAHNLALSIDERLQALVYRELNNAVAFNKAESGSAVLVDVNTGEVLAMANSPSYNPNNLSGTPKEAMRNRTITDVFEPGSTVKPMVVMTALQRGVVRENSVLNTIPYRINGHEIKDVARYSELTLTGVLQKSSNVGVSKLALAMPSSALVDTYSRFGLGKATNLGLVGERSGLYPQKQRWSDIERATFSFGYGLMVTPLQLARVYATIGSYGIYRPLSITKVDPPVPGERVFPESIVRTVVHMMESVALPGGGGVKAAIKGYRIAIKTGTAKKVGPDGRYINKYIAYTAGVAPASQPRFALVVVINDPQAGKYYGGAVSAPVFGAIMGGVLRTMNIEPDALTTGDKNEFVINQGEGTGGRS

SMILES: CCN1CCN(C(=O)NC(C(=O)N[C@H]2Cc3cccc(C(=O)O)c3OB2O)C2CCNC2)C(=O)C1=O (stereo partly drawn) [Example 55, (3R)-3-(2-(4-ethyl-2,3-dioxopiperazine-1-carboxamido)-2-(pyrrolidin-3-yl)acetamido)-2-hydroxy-3,4-dihydro-2H-benzo[e][1,2]oxaborinine-8-carboxylic acid, trifluoroacetic acid salt]
- EC50 [1, 11]: > 500 µM
- MIC [2]: 128 to 256 mg/L

SMILES: CC(C)(O/N=C(\C(=O)N[C@@H]1C(=O)N2C(C(=O)[O-])=C(C[n+]3ccccc3)CS[C@H]12)c1csc(N)n1)C(=O)O [ceftazidime, reference compound]
- MIC in CTX-M15 producer compared with parent strain with empty pLBII plasmid ([2]; engineered E. coli DH5α with CTX-M15 vs empty vector control): weaker MICs in the CTX-M15 producer
- Microbiological Activity (MIC in mg/L), E. coli DH5α/pLBII-CTX-M15 ([2]; engineered strain producing CTX-M15): D (D represents an MIC from 8 to 16 μg/mL)

SMILES: CCN1CCN(C(=O)NC(C(=O)N[C@H]2Cc3cccc(C(=O)O)c3OB2O)c2c(C)n[nH]c2C)C(=O)C1=O (stereo partly drawn) [Example 54, (3R)-3-(2-(3,5-dimethyl-1H-pyrazol-4-yl)-2-(4-ethyl-2,3-dioxopiperazine-1-carboxamido)acetamido)-2-hydroxy-3,4-dihydro-2H-benzo[e][1,2]oxaborinine-8-carboxylic acid, trifluoroacetic acid salt]
- EC50 [1]: 30 to 500 µM
- MIC [2]: 128 to 256 mg/L

SMILES: CCN1CCN(C(=O)N[C@@H](C(=O)N[C@H]2Cc3cc(O)c(O)c(C(=O)O)c3OB2O)[C@@H](C)O)C(=O)C1=O [Example 95, (R)-3-((2R,3R)-2-(4-ethyl-2,3-dioxopiperazine-1-carboxamido)-3-hydroxybutanamido)-2,6,7-trihydroxy-3,4-dihydro-2H-benzo[e][1,2]oxaborinine-8-carboxylic acid]
- EC50 [1, 11]: > 500 µM
- MIC [2]: 128 to 256 mg/L (≈ 252 to 504 µM)

SMILES: CCN1CCN(C(=O)N[C@@](C)(C(=O)N[C@H]2Cc3cccc(C(=O)O)c3OB2O)c2csc(N)n2)C(=O)C1=O [Example 97, (R)-3-((R)-2-(2-aminothiazol-4-yl)-2-(4-ethyl-2,3-dioxopiperazine-1-carboxamido)propanamido)-2-hydroxy-3,4-dihydro-2H-benzo[e][1,2]oxaborinine-8-carboxylic acid]
- EC50 [1, 11]: > 500 µM
- MIC [2]: 128 to 256 mg/L (≈ 235 to 470 µM)

SMILES: CCN1CCN(C(=O)NC(C(=O)N[C@H]2Cc3cccc(C(=O)O)c3OB2O)C2CCN(CC(N)=O)C2)C(=O)C1=O (stereo partly drawn) [Example 57, (3R)-3-(2-(1-(2-amino-2-oxoethyl)pyrrolidin-3-yl)-2-(4-ethyl-2,3-dioxopiperazine-1-carboxamido)acetamido)-2-hydroxy-3,4-dihydro-2H-benzo[e][1,2]oxaborinine-8-carboxylic acid, trifluoroacetic acid salt]
- EC50 [1, 11]: > 500 µM
- MIC [2]: 128 to 256 mg/L

SMILES: CCN1CCN(C(=O)N[C@@H](C(=O)N[C@H]2Cc3cccc(C(=O)O)c3OB2O)[C@@H](C)OCC(N)=O)C(=O)C1=O [Example 66, (R)-3-((2R,3R)-3-(2-amino-2-oxoethoxy)-2-(4-ethyl-2,3-dioxopiperazine-1-carboxamido)butanamido)-2-hydroxy-3,4-dihydro-2H-benzo[e][1,2]oxaborinine-8-carboxylic acid]
- EC50 [1]: 30 to 500 µM
- MIC [2]: 32 to 64 mg/L (≈ 60 to 120 µM)

SMILES: O=C(O)c1cccc2c1OB(O)[C@@H](NC(=O)C(NC(=O)c1c[nH]c3cccnc3c1=O)c1ccc(O)c(O)c1Cl)C2 (stereo partly drawn) [Example 59, (3R)-3-(2-(2-chloro-3,4-dihydroxyphenyl)-2-(4-oxo-1,4-dihydro-1,5-naphthyridine-3-carboxamido)acetamido)-2-hydroxy-3,4-dihydro-2H-benzo[e][1,2]oxaborinine-8-carboxylic acid]
- MIC [2]: 128 to 256 mg/L (≈ 221 to 442 µM)

SMILES: CCN1CCN(C(=O)N[C@@H](C(=O)N[C@H]2Cc3cccc(C(=O)O)c3OB2O)C2(CO)CC2)C(=O)C1=O [Example 62, (R)-3-((R)-2-(4-ethyl-2,3-dioxopiperazine-1-carboxamido)-2-(1-(hydroxymethyl)cyclopropyl)acetamido)-2-hydroxy-3,4-dihydro-2H-benzo[e][1,2]oxaborinine-8-carboxylic acid]
- MIC [2]: 32 to 64 mg/L (≈ 63.7 to 127 µM)

SMILES: CCN1CCN(C(=O)NC(C(=O)N[C@H]2Cc3cccc(C(=O)O)c3OB2O)C(CCl)CNS(N)(=O)=O)C(=O)C1=O (stereo partly drawn) [Example 80, (3R)-3-(4-chloro-2-(4-ethyl-2,3-dioxopiperazine-1-carboxamido)-3-((sulfamoylamino)methyl)butanamido)-2-hydroxy-3,4-dihydro-2H-benzo[e][1,2]oxaborinine-8-carboxylic acid]
- MIC [2]: 128 to 256 mg/L (≈ 212 to 425 µM)

SMILES: CCN1CCN(C(=O)NC(C(=O)N[C@H]2Cc3cccc(C(=O)O)c3OB2O)C(CO)CNS(N)(=O)=O)C(=O)C1=O (stereo partly drawn) [Example 79, (3R)-3-(2-(4-ethyl-2,3-dioxopiperazine-1-carboxamido)-4-hydroxy-3-((sulfamoylamino)methyl)butanamido)-2-hydroxy-3,4-dihydro-2H-benzo[e][1,2]oxaborinine-8-carboxylic acid]
- MIC [2]: 32 to 64 mg/L (≈ 54.8 to 110 µM)

SMILES: O=C(O)c1cccc2c1OB(O)[C@@H](NC(=O)C(NC(=O)c1c[nH]ccc1=O)c1ncc(O)cc1F)C2 (stereo partly drawn) [Example 219, (3R)-3-(2-(3-fluoro-5-hydroxypyridin-2-yl)-2-(4-oxo-1,4-dihydropyridine-3-carboxamido)acetamido)-2-hydroxy-3,4-dihydro-2H-benzo[e][1,2]oxaborinine-8-carboxylic acid]
- EC50 [1]: < 30 µM
- MIC ([3]; ATCC25922, read-out: MIC E. coli 25922): > 128 µg/mL
- MIC [4]: > 128 µg/mL
- MIC [5]: 2 to 4 µg/mL
- MIC [6]: 8 to 16 µg/mL
- MIC [7]: 8 to 16 µg/mL
- MIC [8]: 32 to 64 µg/mL
- MIC [9]: 32 to 64 µg/mL
- MIC [10]: > 128 µg/mL

SMILES: CCN1CCN(C(=O)NC(C(=O)N[C@H]2Cc3cccc(C(=O)O)c3OB2O)c2ccc(N3CCOCC3)cc2)C(=O)C1=O (stereo partly drawn) [Example 61, (3R)-3-(2-(4-ethyl-2,3-dioxopiperazine-1-carboxamido)-2-(4-morpholinophenyl)acetamido)-2-hydroxy-3,4-dihydro-2H-benzo[e][1,2]oxaborinine-8-carboxylic acid]
- MIC [2]: 128 to 256 mg/L (≈ 216 to 431 µM)

SMILES: CCCN1CCN(C(=O)NC(C(=O)N[C@H]2Cc3cccc(C(=O)O)c3OB2O)c2ccc(O)cn2)C(=O)C1=O (stereo partly drawn) [Example 134, (3R)-3-(2-(2,3-dioxo-4-propylpiperazine-1-carboxamido)-2-(5-hydroxypyridin-2-yl)acetamido)-2-hydroxy-3,4-dihydro-2H-benzo[e][1,2]oxaborinine-8-carboxylic acid]
- EC50 [1, 11]: < 30 µM
- MIC ([3]; ATCC25922, E. coli ATCC 25922, broth microdilution, read-out: MIC E. coli 25922): 32 to 64 µg/mL
- MIC [4]: 32 to 64 µg/mL
- MIC [5]: 2 to 4 µg/mL
- MIC [6]: 8 to 16 µg/mL
- MIC [7]: 8 to 16 µg/mL
- MIC [8]: 32 to 64 µg/mL
- MIC [9]: 32 to 64 µg/mL
- MIC [10]: 32 to 64 µg/mL

From patent publication US12173018B2, “Penicillin-binding protein inhibitors” (priority 2018, dated 2024)
